Results from ChEMBL document CHEMBL1201862, “PubChem BioAssay data set” (2004).
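Compound exposure: 48 hours, 5 concentrations, 96-well plates. GI50 marks 50% less growth.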 Calls of active or inactive are those of the source. Rule as the data show it: active = GI50 up to about 1.1 µM and inactive = higher.

What was measured:
Test in all cases: NCI-60 cell line screen, 48 h
RPMI-8226 = test system: RPMI-8226
786-0 = test system: 786-0
Malme-3M = test system: Malme-3M
MDA-N = test system: MDA-N
SF-539 = test system: SF-539
EKVX = test system: EKVX
COLO 205 = test system: COLO 205
UACC-257 = test system: UACC-257
SF-268 = test system: SF-268
OVCAR-4 = test system: OVCAR-4
CCRF-CEM = test system: CCRF-CEM
KM12 = test system: KM12
HCC 2998 = test system: HCC 2998
SR = test system: SR
LOX IMVI = test system: LOX IMVI
M14 = test system: M14
A549 = test system: A549
UACC-62 = test system: UACC-62
SF-295 = test system: SF-295
IGROV-1 = test system: IGROV-1
HL-60 = test system: HL-60
BT-549 = test system: BT-549
MOLT-4 = test system: MOLT-4
TK-10 = test system: TK-10
PC-3 = test system: PC-3
SNB-75 = test system: SNB-75
NCI/ADR-RES = test system: NCI/ADR-RES
MCF7 = test system: MCF7
OVCAR-3 = test system: OVCAR-3
HT-29 = test system: HT-29
Hs-578T = test system: Hs-578T
NCI-H23 = test system: NCI-H23
CAKI-1 = test system: CAKI-1
SK-OV-3 = test system: SK-OV-3
HCT-15 = test system: HCT-15
SK-MEL-28 = test system: SK-MEL-28
NCI-H226 = test system: NCI-H226
NCI-H460 = test system: NCI-H460
MDA-MB-435 = test system: MDA-MB-435
ACHN = test system: ACHN
MDA-MB-231 = test system: MDA-MB-231
U-251 = test system: U-251
UO-31 = test system: UO-31
SN12C = test system: SN12C
HOP-62 = test system: HOP-62
OVCAR-8 = test system: OVCAR-8
HCT-116 = test system: HCT-116
SW-620 = test system: SW-620
SNB-19 = test system: SNB-19
NCI-H522 = test system: NCI-H522
OVCAR-5 = test system: OVCAR-5
SK-MEL-2 = test system: SK-MEL-2
HOP-92 = test system: HOP-92
DU-145 = test system: DU-145
K562 = test system: K562
A498 = test system: A498
RXF 393 = test system: RXF 393
SK-MEL-5 = test system: SK-MEL-5

Cc1ccc(C(=O)O)cc1S(=O)(=O)Nn1cnc2ccc(S(=O)(=O)Nc3ccccc3C(=O)O)cc2c1=O
GI50 (RPMI-8226): 54.5 µM (inactive)
GI50 (786-0): > 100 µM (inactive)
GI50 (Malme-3M): > 100 µM (inactive)
GI50 (MDA-N): 47.3 µM (inactive)
GI50 (SF-539): > 100 µM (inactive)
GI50 (EKVX): > 100 µM (inactive)
GI50 (COLO 205): 31.6 µM (inactive)
GI50 (UACC-257): > 100 µM (inactive)
GI50 (SF-268): > 100 µM (inactive)
GI50 (OVCAR-4): > 100 µM (inactive)
GI50 (CCRF-CEM): > 100 µM (inactive)
GI50 (KM12): 10.9 µM (inactive)
GI50 (HCC 2998): > 100 µM (inactive)
GI50 (SR): > 100 µM (inactive)
GI50 (LOX IMVI): > 100 µM (inactive)
GI50 (M14): 18.3 µM (inactive)
GI50 (A549): > 100 µM (inactive)
GI50 (UACC-62): 8.93 µM (inactive)
GI50 (SF-295): 26.1 µM (inactive)
GI50 (IGROV-1): 60.7 µM (inactive)
GI50 (HL-60): > 100 µM (inactive)
GI50 (BT-549): > 100 µM (inactive)
GI50 (MOLT-4): > 100 µM (inactive)
GI50 (TK-10): > 100 µM (inactive)
GI50 (PC-3): 16.6 µM (inactive)
GI50 (SNB-75): > 100 µM (inactive)
GI50 (NCI/ADR-RES): > 100 µM (inactive)
GI50 (MCF7): > 100 µM (inactive)
GI50 (OVCAR-3): > 100 µM (inactive)
GI50 (HT-29): > 100 µM (inactive)
GI50 (Hs-578T): > 100 µM (inactive)
GI50 (NCI-H23): > 100 µM (inactive)
GI50 (CAKI-1): > 100 µM (inactive)
GI50 (SK-OV-3): > 100 µM (inactive)
GI50 (HCT-15): > 100 µM
GI50 (SK-MEL-28): > 100 µM (inactive)
GI50 (NCI-H226): 83.8 µM (inactive)
GI50 (NCI-H460): > 100 µM (inactive)
GI50 (MDA-MB-435): > 100 µM (inactive)
GI50 (ACHN): > 100 µM (inactive)
GI50 (MDA-MB-231): > 100 µM (inactive)
GI50 (U-251): > 100 µM (inactive)
GI50 (UO-31): 46.1 µM (inactive)
GI50 (SN12C): > 100 µM (inactive)
GI50 (HOP-62): > 100 µM (inactive)
GI50 (OVCAR-8): > 100 µM (inactive)
GI50 (HCT-116): 46.1 µM (inactive)
GI50 (SW-620): > 100 µM (inactive)
GI50 (SNB-19): > 100 µM (inactive)
GI50 (NCI-H522): > 100 µM (inactive)
GI50 (OVCAR-5): 54.6 µM (inactive)
GI50 (SK-MEL-2): 61 µM (inactive)
GI50 (HOP-92): > 100 µM (inactive)
GI50 (DU-145): > 100 µM (inactive)
GI50 (K562): 1.78 µM (inactive)

CC(=O)NC(C)(C)C1CCC(C)CC1 (stereo not given)
GI50 (RPMI-8226): > 100 µM (inactive)
GI50 (786-0): > 100 µM (inactive)
GI50 (Malme-3M): > 100 µM (inactive)
GI50 (MDA-N): > 100 µM (inactive)
GI50 (SF-539): > 100 µM (inactive)
GI50 (EKVX): > 100 µM (inactive)
GI50 (COLO 205): > 100 µM (inactive)
GI50 (UACC-257): > 100 µM (inactive)
GI50 (A498): > 100 µM (inactive)
GI50 (SF-268): > 100 µM (inactive)
GI50 (OVCAR-4): > 100 µM (inactive)
GI50 (CCRF-CEM): > 100 µM (inactive)
GI50 (KM12): > 100 µM (inactive)
GI50 (HCC 2998): > 100 µM (inactive)
GI50 (SR): > 100 µM (inactive)
GI50 (LOX IMVI): > 100 µM (inactive)
GI50 (M14): > 100 µM (inactive)
GI50 (A549): > 100 µM (inactive)
GI50 (UACC-62): > 100 µM (inactive)
GI50 (SF-295): > 100 µM (inactive)
GI50 (IGROV-1): > 100 µM (inactive)
GI50 (HL-60): > 100 µM (inactive)
GI50 (BT-549): > 100 µM (inactive)
GI50 (MOLT-4): > 100 µM (inactive)
GI50 (TK-10): > 100 µM (inactive)
GI50 (PC-3): > 100 µM (inactive)
GI50 (SNB-75): > 100 µM (inactive)
GI50 (RXF 393): > 100 µM (inactive)
GI50 (NCI/ADR-RES): > 100 µM (inactive)
GI50 (MCF7): > 100 µM (inactive)
GI50 (OVCAR-3): > 100 µM (inactive)
GI50 (HT-29): > 100 µM (inactive)
GI50 (Hs-578T): 48.9 µM (inactive)
GI50 (NCI-H23): > 100 µM (inactive)
GI50 (CAKI-1): > 100 µM (inactive)
GI50 (SK-OV-3): > 100 µM (inactive)
GI50 (HCT-15): > 100 µM
GI50 (SK-MEL-28): > 100 µM (inactive)
GI50 (NCI-H226): > 100 µM (inactive)
GI50 (SK-MEL-5): > 100 µM (inactive)
GI50 (NCI-H460): > 100 µM (inactive)
GI50 (MDA-MB-435): > 100 µM (inactive)
GI50 (ACHN): > 100 µM (inactive)
GI50 (MDA-MB-231): > 100 µM (inactive)
GI50 (U-251): > 100 µM (inactive)
GI50 (UO-31): > 100 µM (inactive)
GI50 (SN12C): > 100 µM (inactive)
GI50 (HOP-62): > 100 µM (inactive)
GI50 (OVCAR-8): > 100 µM (inactive)
GI50 (HCT-116): > 100 µM (inactive)
GI50 (SW-620): > 100 µM (inactive)
GI50 (SNB-19): > 100 µM (inactive)
GI50 (OVCAR-5): > 100 µM (inactive)
GI50 (DU-145): > 100 µM (inactive)
GI50 (K562): > 100 µM (inactive)
